Measured values taken from patent US8168384B2, “Non-thiopurine methyltransferase related effects in 6-mercaptopurine therapy” (Guy's and St. Thomas' NHS Foundation Trust, priority 2007, dated 2012).

What was measured:
[1] = remaining non-/partial responder patients
[2] = Cohort of patients starting azathioprine therapy: clinical response, side-effects and association with XDH, MOCOS and AOX SNP genotype; conditions: cohort of 168 patients starting azathioprine therapy

In the case of `Cn1cnc([N+](=O)[O-])c1Sc1ncnc2nc[nH]c12` [azathioprine, 6-(1-methyl-4-nitro-5-imidazolylthio) purine], the “difference in TGN levels between wild-type and heterozygous for the AOX SNP” value [1] is reported as “no significant difference”, the partial responders [2] is reported as 7 patients and the “patients deemed to have no response to azathioprine” value [2] is reported as 35 patients.
